According to patent US20150362482A1 (priority 2013, published 2015):

Experiments:
Format in all cases: cell-based, mouse
networked ESN cultures = system: networked ESN cultures
ESNs = system: ESNs
iGluR = system: iGluR
GABARA = system: GABARA

`Nc1ccncc1N` [3,4-DAP, 3,4-diaminopyridine] was tested, and the “network behaviour in simultaneous dual intracellular recordings” value (networked ESN cultures) was “rapid transition to a synchronized bursting behavior”.

In the case of `NCCCC(=O)O` [GABA], the “effect on spontaneous network activity” value (networked ESN cultures) is reported as “silenced spontaneous network activity”.

`NC1=N[C@H](O)[C@H]2[C@H]3O[C@]4(O)O[C@@H]([C@@H](O)[C@@]2(N1)[C@@H]4O)[C@]3(O)CO` [TTX, tetrodotoxin] was tested, and the excitatory post-synaptic currents (ESNs) was “blocked”.

With `N[C@@H](CCC(=O)O)C(=O)O` [glutamate] the agonist-induced current (iGluR) was “multiphasic inward current”.

With `NCc1cc(=O)[nH]o1` [muscimol] the agonist-induced current (GABARA) was “large desensitizing Cl-current”.
